Results from patent US20240294508A1, “RIP1 MODULATORS INCLUDING AZETIDINE CYCLIC UREAS, PREPARATIONS, AND USES THEREOF” (SIRONAX LTD., priority 2021, published 2024).

Test system: HT-29 cells
Assay: HT29 cells 0FBS assay in vitro: TNF-α/SMAC mimetic/zVAD-FMK induced necroptosis, CellTiter-Glo cell viability (RIP1 inhibitory activity)
Assay type: cell-based
Settings: Homo sapiens, FBS free medium, TNF-α (10 ng/ml) + SMAC mimetic (6 uM) + zVAD-FMK (10 μM), 20 hours, geometric mean EC50
Procedure, shortened: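 HT-29 cells (5,000/well, overnight) switched to FBS-free McCOY's 5A with TNF-α (10 ng/ml), SMAC mimetic (6 uM) and zVAD-FMK (10 μM) to drive necroptosis, plus compound, for 20 hours at 37° C. Viability read by CellTiter-Glo luminescence; geometric mean EC50 from 10-point duplicate dose-response.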

Compound | EC50 [µM]
Cc1c(C#N)nn(C)c1-c1cc(OC2CN(C(=O)N3N=CC[C@H]3c3cc(F)cc(C#N)c3)C2)c(F)cn1 [Compound 51, (S)-5-(4-((1-(5-(3-cyano-5-fluorophenyl)-4,5-dihydro-1H-pyrazole-1-carbonyl)azetidin-3-yl)oxy)-5-fluoropyridin-2-yl)-1,4-dimethyl-1H-pyrazole-3-carbonitrile] | 0.0001 to 0.1
CCn1nc(C)c(-c2cc(OC3CN(C(=O)N4N=CC[C@H]4c4cc(F)cc(C#N)c4)C3)c(F)cn2)c1C [Compound 52, (S)-3-(1-(3-((2-(1-ethyl-3,5-dimethyl-1H-pyrazol-4-yl)-5-fluoropyridin-4-yl)oxy)azetidine-1-carbonyl)-4,5-dihydro-1H-pyrazol-5-yl)-5-fluorobenzonitrile] | 0.0001 to 0.1
Cc1cnn(C)c1-c1ccc(F)c(OC2CN(C(=O)N3N=CC[C@H]3c3cc(F)cc(C#N)c3)C2)n1 [Compound 53, (S)-3-(1-(3-((6-(1,4-dimethyl-1H-pyrazol-5-yl)-3-fluoropyridin-2-yl)oxy)azetidine-1-carbonyl)-4,5-dihydro-1H-pyrazol-5-yl)-5-fluorobenzonitrile] | 0.0001 to 0.1
Cc1cnn(C)c1-c1ccc(F)c(OC2CN(C(=O)N3N=CC[C@H]3c3cncc(C#N)c3)C2)n1 [Compound 55, (S)-5-(1-(3-((6-(1,4-dimethyl-1H-pyrazol-5-yl)-3-fluoropyridin-2-yl)oxy)azetidine-1-carbonyl)-4,5-dihydro-1H-pyrazol-5-yl)nicotinonitrile] | 0.0001 to 0.1
Cc1c(C#N)nn(C)c1-c1ccc(F)c(OC2CN(C(=O)N3N=CC[C@H]3c3cc(F)cc(C#N)c3)C2)n1 [Compound 56, (S)-5-(6-((1-(5-(3-cyano-5-fluorophenyl)-4,5-dihydro-1H-pyrazole-1-carbonyl)azetidin-3-yl)oxy)-5-fluoropyridin-2-yl)-1,4-dimethyl-1H-pyrazole-3-carbonitrile] | 0.0001 to 0.1
Cc1nn(CC2CC2)c(C)c1-c1cc(OC2CN(C(=O)N3N=CC[C@H]3c3cc(F)cc(C#N)c3)C2)c(F)cn1 [Compound 57, (S)-3-(1-(3-((2-(1-(cyclopropylmethyl)-3,5-dimethyl-1H-pyrazol-4-yl)-5-fluoropyridin-4-yl)oxy)azetidine-1-carbonyl)-4,5-dihydro-1H-pyrazol-5-yl)-5-fluorobenzonitrile] | 0.0001 to 0.1
Cc1c(C(N)=O)nn(C)c1-c1cc(OC2CN(C(=O)N3N=CC[C@H]3c3cc(F)cc(C#N)c3)C2)c(F)cn1 [Compound 58, (S)-5-(4-((1-(5-(3-cyano-5-fluorophenyl)-4,5-dihydro-1H-pyrazole-1-carbonyl)azetidin-3-yl)oxy)-5-fluoropyridin-2-yl)-1,4-dimethyl-1H-pyrazole-3-carboxamide] | 0.0001 to 0.1
Cc1c(C(N)=O)nn(C)c1-c1ccc(F)c(OC2CN(C(=O)N3N=CC[C@H]3c3cc(F)cc(C#N)c3)C2)n1 [Compound 59, (S)-5-(6-((1-(5-(3-cyano-5-fluorophenyl)-4,5-dihydro-1H-pyrazole-1-carbonyl)azetidin-3-yl)oxy)-5-fluoropyridin-2-yl)-1,4-dimethyl-1H-pyrazole-3-carboxamide] | 0.0001 to 0.1
Cc1cnn(C)c1-c1ccc(F)c(OC2CN(C(=O)N3N=CC[C@H]3c3cc(F)cc(C#N)c3)C2)c1 [Compound 60, (S)-3-(1-(3-(5-(1,4-dimethyl-1H-pyrazol-5-yl)-2-fluorophenoxy)azetidine-1-carbonyl)-4,5-dihydro-1H-pyrazol-5-yl)-5-fluorobenzonitrile] | 0.0001 to 0.1
Cc1c(N)nn(C)c1-c1cc(OC2CN(C(=O)N3N=CC[C@H]3c3cncc(F)c3)C2)c(F)cn1 [Compound 61, (S)-(3-((2-(3-amino-1,4-dimethyl-1H-pyrazol-5-yl)-5-fluoropyridin-4-yl)oxy)azetidin-1-yl)(5-(5-fluoropyridin-3-yl)-4,5-dihydro-1H-pyrazol-1-yl)methanone] | 0.0001 to 0.1
Cc1c(N)nn(C)c1-c1cc(OC2CN(C(=O)N3N=CC[C@H]3c3cncc(C#N)c3)C2)c(F)cn1 [Compound 62, (S)-5-(1-(3-((2-(3-amino-1,4-dimethyl-1H-pyrazol-5-yl)-5-fluoropyridin-4-yl)oxy)azetidine-1-carbonyl)-4,5-dihydro-1H-pyrazol-5-yl)nicotinonitrile] | 0.0001 to 0.1
Cc1nn(-c2cc(OC3CN(C(=O)N4N=CC[C@H]4c4cncc(F)c4)C3)c(F)cn2)c(C)c1C(N)=O [Compound 63, (S)-1-(5-fluoro-4-((1-(5-(5-fluoropyridin-3-yl)-4,5-dihydro-1H-pyrazole-1-carbonyl)azetidin-3-yl)oxy)pyridin-2-yl)-3,5-dimethyl-1H-pyrazole-4-carboxamide] | 0.1 to 1
Cc1ncsc1-c1cc(OC2CN(C(=O)N3N=CC[C@H]3c3cncc(F)c3)C2)c(F)cn1 [Compound 64, (S)-(3-((5-fluoro-2-(4-methylthiazol-5-yl)pyridin-4-yl)oxy)azetidin-1-yl)(5-(5-fluoropyridin-3-yl)-4,5-dihydro-1H-pyrazol-1-yl)methanone] | 0.0001 to 0.1
Cc1c(C#N)nn(C)c1-c1cc(OC2CN(C(=O)N3N=CC[C@H]3c3cncc(F)c3)C2)c(F)cn1 [Compound 65, (S)-5-(5-fluoro-4-((1-(5-(5-fluoropyridin-3-yl)-4,5-dihydro-1H-pyrazole-1-carbonyl)azetidin-3-yl)oxy)pyridin-2-yl)-1,4-dimethyl-1H-pyrazole-3-carbonitrile] | 0.0001 to 0.1
Cc1c(N)nn(C)c1-c1ccc(F)c(OC2CN(C(=O)N3N=CC[C@H]3c3cncc(F)c3)C2)n1 [Compound 67, (S)-(3-((6-(3-amino-1,4-dimethyl-1H-pyrazol-5-yl)-3-fluoropyridin-2-yl)oxy)azetidin-1-yl)(5-(5-fluoropyridin-3-yl)-4,5-dihydro-1H-pyrazol-1-yl)methanone] | 0.0001 to 0.1
Cc1nc(C#N)c(C)n1-c1cc(OC2CN(C(=O)N3N=CC[C@H]3c3cncc(F)c3)C2)c(F)cn1 [Compound 68, (S)-1-(5-fluoro-4-((1-(5-(5-fluoropyridin-3-yl)-4,5-dihydro-1H-pyrazole-1-carbonyl)azetidin-3-yl)oxy)pyridin-2-yl)-2,5-dimethyl-1H-imidazole-4-carbonitrile] | 0.1 to 1
Cc1nc(C(N)=O)c(C)n1-c1cc(OC2CN(C(=O)N3N=CC[C@H]3c3cncc(F)c3)C2)c(F)cn1 [Compound 69, (S)-1-(5-fluoro-4-((1-(5-(5-fluoropyridin-3-yl)-4,5-dihydro-1H-pyrazole-1-carbonyl)azetidin-3-yl)oxy)pyridin-2-yl)-2,5-dimethyl-1H-imidazole-4-carboxamide] | 0.1 to 1
Cc1nn(-c2cc(OC3CN(C(=O)N4N=CC[C@H]4c4cc(F)cc(C#N)c4)C3)c(F)cn2)c(C)c1C(N)=O [Compound 70, (S)-1-(4-((1-(5-(3-cyano-5-fluorophenyl)-4,5-dihydro-1H-pyrazole-1-carbonyl)azetidin-3-yl)oxy)-5-fluoropyridin-2-yl)-3,5-dimethyl-1H-pyrazole-4-carboxamide] | 0.0001 to 0.1
Cc1nn(-c2cc(OC3CN(C(=O)N4N=CC[C@H]4c4ccccc4)C3)c(F)cn2)c(C)c1C(N)=O [Compound 71, (S)-1-(5-fluoro-4-((1-(5-phenyl-4,5-dihydro-1H-pyrazole-1-carbonyl)azetidin-3-yl)oxy)pyridin-2-yl)-3,5-dimethyl-1H-pyrazole-4-carboxamide] | 0.0001 to 0.1
Cc1nn(-c2cc(OC3CN(C(=O)N4N=CC[C@H]4c4cccc(F)c4)C3)c(F)cn2)c(C)c1C(N)=O [Compound 73, (S)-1-(5-fluoro-4-((1-(5-(3-fluorophenyl)-4,5-dihydro-1H-pyrazole-1-carbonyl)azetidin-3-yl)oxy)pyridin-2-yl)-3,5-dimethyl-1H-pyrazole-4-carb oxamide] | 0.0001 to 0.1
Cc1nn(-c2cc(OC3CN(C(=O)N4N=CC[C@H]4c4ccccc4)C3)c(F)cn2)c(C)c1C(=O)NCCO [Compound 74, (S)-1-(5-fluoro-4-((1-(5-phenyl-4,5-dihydro-1H-pyrazole-1-carbonyl)azetidin-3-yl)oxy)pyridin-2-yl)-N-(2-hydroxyethyl)-3,5-dimethyl-1H-pyrazole-4-carboxamide] | 0.0001 to 0.1
Cc1nn(-c2cc(OC3CN(C(=O)N4N=CC[C@H]4c4cccc(F)c4)C3)c(F)cn2)c(C)c1C(=O)NCCO [Compound 75, (S)-1-(5-fluoro-4-((1-(5-(3-fluorophenyl)-4,5-dihydro-1H-pyrazole-1-carbonyl)azetidin-3-yl)oxy)pyridin-2-yl)-N-(2-hydroxyethyl)-3,5-dimethyl-1H-pyrazole-4-carboxamide] | 0.0001 to 0.1
Cc1nn(-c2cc(OC3CN(C(=O)N4N=CC[C@H]4c4ccccc4)C3)c(F)cn2)c(C)c1C(=O)NC1COC1 [Compound 76, (S)-1-(5-fluoro-4-((1-(5-phenyl-4,5-dihydro-1H-pyrazole-1-carbonyl)azetidin-3-yl)oxy)pyridin-2-yl)-3,5-dimethyl-N-(oxetan-3-yl)-1H-pyrazole-4-carboxamide] | 0.0001 to 0.1
Cc1nn(-c2cc(OC3CN(C(=O)N4N=CC[C@H]4c4cccc(F)c4)C3)c(F)cn2)c(C)c1C(=O)NC1COC1 [Compound 77, (S)-1-(5-fluoro-4-((1-(5-(3-fluorophenyl)-4,5-dihydro-1H-pyrazole-1-carbonyl)azetidin-3-yl)oxy)pyridin-2-yl)-3,5-dimethyl-N-(oxetan-3-yl)-1H-pyrazole-4-carboxamide] | 0.0001 to 0.1
CNC(=O)c1c(C)nn(-c2cc(OC3CN(C(=O)N4N=CC[C@H]4c4ccccc4)C3)c(F)cn2)c1C [Compound 78] | 0.0001 to 0.1
CNC(=O)c1c(C)nn(-c2cc(OC3CN(C(=O)N4N=CC[C@H]4c4cccc(F)c4)C3)c(F)cn2)c1C [Compound 79, (S)-1-(5-fluoro-4-((1-(5-(3-fluorophenyl)-4,5-dihydro-1H-pyrazole-1-carbonyl)azetidin-3-yl)oxy)pyridin-2-yl)-N,3,5-trimethyl-1H-pyrazole-4-carboxamide] | 0.0001 to 0.1
